Assay results taken from patent US4062733A, “Radio-assay of oestrogen” (The Radiochemical Centre Limited, priority 1975, dated 1977).

Legend:
Assay type in all cases: binding
[1] = test system: antiserum produced by immunising with oestrone-6-carbomethoxyoximethyroglobulin (Miles-Yeda); test: radioimmunoassay of oestrone, standard curve, Miles-Yeda antiserum; settings: Miles-Yeda antiserum as supplied, label age 23 days
[2] = test system: antiserum produced by immunising with an oestrone derivative coupled in the 6 position (The John Radcliffe Hospital, Oxford); test: radioimmunoassay of oestrone, standard curve, John Radcliffe Hospital antiserum; settings: J. Radcliffe Hosp. antiserum 1/32,000, label age 30 days
[3] = test system: antiserum produced by immunising with oestradiol-6-carbomethoxyoxime-BSA (Miles-Yeda); test: radioimmunoassay of oestradiol, standard curve, Miles-Yeda antiserum; settings: Miles-Yeda antiserum as supplied, label age 23 days
[4] = test system: antiserum produced by immunising with an oestradiol derivative coupled in the 6 position (The John Radcliffe Hospital, Oxford); test: radioimmunoassay of oestradiol, standard curve, John Radcliffe Hospital antiserum
[5] = test system: antiserum produced against oestriol conjugated to albumin (antiserum A); test: radioimmunoassay of oestriol, standard curve, antiserum A
Protocol: (§1) In the assay, an accurately known volume of the biological fluid is incubated with a standard amount of the radio-iodinated oestrogen derivative and a standard amont of the specific reagent, e.g. antibody, insufficient to bind all the oestrogens present. The radio-iodinated oestrogen derivatives and the specific reagent may conveniently be provided in buffered solution containing horse serum. […] The radioactive concentration of the precipitate and/or the supernatant liquid is then counted by standard techniques. If an absolute determination is required, a calibration curve may be generated in the usual way by means of oestrogen, e.g. oestriol, solutions of known concentrations, conveniently also in horse serum.
(§2) Chloramine-T (0.5 mg in 100 μl water) is added to a stirred mixture of oestriol (50 μg in 400 ul ethanol) and Na^125 I (10mCi in 100 μl dilute NaOH), and the mixture is stirred for a further 5 minutes. Sodium metabisulphite (1.2 mg in 500 μl water) is then added and the mixture stirred for 5 minutes before 1 ml of 0.1 M HCl is added. The mixture is then vigorously stirred with 1 ml of chloroform. The aqueous layer is separated from the organic solvent, and the aqueous layer is re-extracted with a further 1 ml of chloroform. The pooled chloroform extracts are evaporated to dryness under a stream of nitrogen, and the residue is redissolved in 50 μl of ethanol. The ethanol solution of ^125 I -- labelled oestriol derivative is purified by chromatography and the product is diluted in phosphate buffer containing horse serum (10%), sodium azide (1 mg/ml) and gelatine (1 mg/ml) prior to use in the radioimmunoassay
(§3) Samples of 50 μl of standard solutions of oestriol in horse serum, or of the unknown human serum samples, are dispensed into plastic tubes. To each tube is added 200 μl of a solution of enzymes (extracted from the snail Helix pomatia) in sodium acetate buffer, pH 5, and the contents of the tubes are briefly mixed. The tubes are then stoppered and incubated in a water bath at 37° C for 2 hours. After the incubation, replicate 50 μl samples are taken from the hydrolysed serum and dispensed into plastic tubes. to each tube is added 200 μl of phosphate buffer containing 10% horse serum, sodium azide (1 mg/ml) gelatine (1 mg/ml), and the oestriol derivative labelled with ^125 I as described above (approximately 0.3 μCi/ml). Volumes of 200 μl of the phosphate buffer containing horse serum, sodium azide and gelatine, and containing a dilution of antiserum produced against oestriol conjugated to albumin are added to each tube, and the contents of the tubes are then mixed. The tubes are left at ambient temperature for 30 minutes, and 500 μl of an ammoniumm sulphate solution (5.4 g in 10 ml water) is then added to each tube. After mixing, the tubes are centrifuged, the supernatant liquid is removed by aspiration and the precipitates in the tubes are counted in a γ-counter.

[6] = test system: antiserum produced against oestriol conjugated to albumin (antiserum B); test: radioimmunoassay of oestriol, standard curve, antiserum B
Protocol: as §1, §2, §3

[7] = test system: antiserum produced by immunising with oestriol-6-carbomethoxyoxime-BSA (antiserum A); test: radioimmunoassay of oestetrol, standard curve, antiserum A; settings: antiserum A 1/100, label age 7 days
[8] = test system: antiserum produced by immunising with oestriol-6-carbomethoxyoxime-BSA (antiserum B); test: radioimmunoassay of oestetrol, standard curve, antiserum B; settings: antiserum B 1/100, label age 7 days
[9] = J. Radcliffe antiserum 1/640, label age 31 days
[10] = J. Radcliffe antiserum 1/3200, label age 30 days

C[C@]12CC[C@@H]3c4ccc(O)cc4CC[C@H]3[C@@H]1CCC2=O [E1, oestrone]
% Bound, 1ng oestrone [1]: 15.4%
% Bound, 1ng oestrone [2]: 11.2%

C[C@]12CC[C@@H]3c4ccc(O)cc4CC[C@H]3[C@@H]1CC[C@@H]2O [E2, oestradiol]
% Bound, 1ng E2 [3]: 4.0%
% Bound, 1ng E2 [4, 9]: 32.7%
% Bound, 2ng E2 [4, 9]: 13.1%
% Bound, 1ng E2 [4, 10]: 3.0%
% Bound, 2ng E2 [4, 10]: 0.5%

C[C@]12CC[C@@H]3c4ccc(O)cc4CC[C@H]3[C@@H]1C[C@@H](O)[C@@H]2O [E3, Oestriol]
% Bound, 50 ng E3 ([5]; 50 ng E3): 57.2%
% Bound, 100 ng E3 ([5]; 100 ng E3): 47.3%
% Bound, 200 ng E3 ([5]; 200 ng E3): 32.6%
% Bound, 350 ng E3 ([5]; 350 ng E3): 23.0%
% Bound, 500 ng E3 ([5]; 500 ng E3): 17.5%
% Bound, 50 ng E3 ([6]; 50 ng E3): 55.2%
% Bound, 100 ng E3 ([6]; 100 ng E3): 47.3%
% Bound, 200 ng E3 ([6]; 200 ng E3): 33.0%
% Bound, 350 ng E3 ([6]; 350 ng E3): 21.4%
% Bound, 500 ng E3 ([6]; 500 ng E3): 17.3%

C[C@]12CC[C@@H]3c4ccc(O)cc4CC[C@H]3[C@@H]1[C@@H](O)[C@@H](O)[C@@H]2O [E4, oestetrol]
% Binding in presence of 20ng E4 [7]: 11.0%
% Binding in presence of 20ng E4 [8]: 8.1%
